Columns and labels:
[1] = target: T1, CYP2D6 (Homo sapiens, UniProt P10635); test: Cytochrome P450 isozyme inhibitory activity test, CYP2D6; type: in vitro ADME; settings: liver microsomes; human liver microsome
T1 construct: from tissue; host or cells: human liver microsomes
Experimental: (§1) The inhibitory activities of the test compound on different subtypes of human cytochrome P450 isozymes were determined. The test compound, standard inhibitor (100× final concentration), and a mixed substrate working solution were prepared; the microsome frozen in −80° C. refrigerator was thawed. […]

[2] = In vivo pharmacokinetic study in mice after single administration; set-up: species or system CD-1 mice; settings: male, CD-1, mouse, plasma
Experimental: Male CD-1 mice were used as test animals, the concentration of the compound in blood was determined after single administration to evaluate the pharmacokinetic behavior.
CD-1 mice (male, 20-40 g, 6-9 weeks, Shanghai Sippr-Bk Laboratory Animal Co., Ltd.)
The pharmacokinetic characteristics of the test compound in rodents after intravenous injection and oral administration were tested by standard protocols, in the experiment, the test compound was prepared into a clear solution or homogeneous suspension, and administered to the mice by single intravenous injection and oral administration. In the intravenous injection group, the menstruum was a certain proportion of ethanol, Cremophor EL and physiological saline solution, the mixture was vortexed to prepare 1 mg/mL clear solution, then filtered with microporous membrane for later use; in the oral administration group, the menstruum was a certain proportion of methyl cellulose solution or certain proportion of methyl cellulose and Tween 80 aqueous solution, the test compound was mixed with the menstruum, and the mixture was vortexed to prepare 10 mg/mL clear or homogeneous suspension for later use. After 2 mg/kg intravenous administration or 100 mg/kg oral administration to the mice, a certain amount of whole blood samples were collected, centrifuged at 3200 g for 10 minutes, the supernatant was separated to obtain the plasma samples, and the samples were diluted multiple times with blank plasma according to actual needs. The plasma sample was added to acetonitrile solution containing the internal standard with a volume 20 times that of the plasma sample to precipitate proteins, and then centrifuged; the supernatant was separated, and water with a volume twice that of the supernatant was added to the supernatant, which was then centrifuged again; the supernatant was collected for analysis; LC-MS/MS analysis method was used to quantitatively analyze the blood drug concentration, and Phoenix WinNonlin software (Pharsight, USA) was used to calculate the pharmacokinetic parameters, such as peak concentration, time to peak concentration, clearance rate, half-life, area under the concentration-time curve, bioavailability, etc.
Among them, C0 is the initial concentration, T1/2 is the elimination half-life, Vdss is the steady-state apparent volume of distribution, Cl is the total clearance rate, AUC0-inf is the area under the plasma drug concentration-time curve from time 0 to infinity, Cmax is the peak concentration, Tmax is the time to peak concentration.

[3] = Plasma protein binding rate (PPB) test, SD rat plasma; type: in vitro ADME; settings: 2 μM, dialysis 37° C. 4 hours
Experimental: The protein binding rates of the test compound in the plasma of humans and SD rats were determined.
796 μL of blank plasma from humans and SD rats (plasma purchased from BioreclamationIVT) were taken, 4 μL of working solution of the test compound (400 μM) or warfarin working solution (400 μM) was added and the final concentration of the test compound or warfarin was 2 μM. The sample was mixed thoroughly. […] All samples were analyzed by LC/MS/MS after protein precipitation, and the plasma protein unbound rate, binding rate and recovery rate was calculated according to the following formula: % unbound rate=100*free compound concentration at the membrane buffer side/total compound concentration at the membrane plasma side, % protein binding rate=100−% unbound rate, % recovery rate=100*(free compound concentration at the membrane buffer side+total compound concentration at the membrane plasma side)/total compound concentration before dialysis.

[4] = target: T2, CYP2C9 (Homo sapiens, UniProt P11712); test: Cytochrome P450 isozyme inhibitory activity test, CYP2C9; type: in vitro ADME; settings: liver microsomes; human liver microsome
T2 construct: from tissue; host or cells: human liver microsomes
Experimental: as §1

[5] = target: T3, CYP2C19 (Homo sapiens, UniProt P33261); test: Cytochrome P450 isozyme inhibitory activity test, CYP2C19; type: in vitro ADME; settings: liver microsomes; human liver microsome
T3 construct: from tissue; host or cells: human liver microsomes
Experimental: as §1

[6] = target: T4, CYP3A4 (Homo sapiens, UniProt P08684); test: Cytochrome P450 isozyme inhibitory activity test, CYP3A4; type: in vitro ADME; settings: liver microsomes; human liver microsome
T4 construct: from tissue; host or cells: human liver microsomes
Experimental: as §1

[7] = 2 mg/kg, 2 mpk intravenous injection
[8] = 100 mg/kg, 100 mpk oral administration

T2 sequence (P11712 whole entry): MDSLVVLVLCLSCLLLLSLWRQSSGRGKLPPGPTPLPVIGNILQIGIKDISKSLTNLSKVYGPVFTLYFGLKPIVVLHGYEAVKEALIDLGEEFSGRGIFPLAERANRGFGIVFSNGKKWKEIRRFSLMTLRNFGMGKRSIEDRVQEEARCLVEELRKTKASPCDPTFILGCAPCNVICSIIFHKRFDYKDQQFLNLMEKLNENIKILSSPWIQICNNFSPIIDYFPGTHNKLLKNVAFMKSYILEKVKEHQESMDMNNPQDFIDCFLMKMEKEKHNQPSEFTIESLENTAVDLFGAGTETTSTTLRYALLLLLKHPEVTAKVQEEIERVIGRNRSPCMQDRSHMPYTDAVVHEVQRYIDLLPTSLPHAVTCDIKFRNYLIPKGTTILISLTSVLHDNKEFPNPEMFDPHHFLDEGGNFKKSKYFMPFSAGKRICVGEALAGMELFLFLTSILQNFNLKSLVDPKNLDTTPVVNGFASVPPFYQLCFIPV
T4 sequence (P08684 whole entry): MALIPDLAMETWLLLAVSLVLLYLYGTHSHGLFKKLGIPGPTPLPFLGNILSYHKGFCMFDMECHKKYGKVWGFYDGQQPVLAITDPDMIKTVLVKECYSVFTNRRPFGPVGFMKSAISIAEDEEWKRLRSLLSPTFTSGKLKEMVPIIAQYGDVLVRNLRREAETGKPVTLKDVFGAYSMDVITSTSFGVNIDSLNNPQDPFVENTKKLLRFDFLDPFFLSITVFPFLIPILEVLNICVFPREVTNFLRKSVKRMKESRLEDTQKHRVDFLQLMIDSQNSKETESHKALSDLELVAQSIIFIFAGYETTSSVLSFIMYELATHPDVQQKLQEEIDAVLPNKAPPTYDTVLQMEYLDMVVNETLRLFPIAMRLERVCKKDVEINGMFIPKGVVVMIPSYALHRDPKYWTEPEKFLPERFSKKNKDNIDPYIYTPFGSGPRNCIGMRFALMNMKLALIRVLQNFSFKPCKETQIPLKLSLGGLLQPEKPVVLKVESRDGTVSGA
T3 sequence (P33261 whole entry): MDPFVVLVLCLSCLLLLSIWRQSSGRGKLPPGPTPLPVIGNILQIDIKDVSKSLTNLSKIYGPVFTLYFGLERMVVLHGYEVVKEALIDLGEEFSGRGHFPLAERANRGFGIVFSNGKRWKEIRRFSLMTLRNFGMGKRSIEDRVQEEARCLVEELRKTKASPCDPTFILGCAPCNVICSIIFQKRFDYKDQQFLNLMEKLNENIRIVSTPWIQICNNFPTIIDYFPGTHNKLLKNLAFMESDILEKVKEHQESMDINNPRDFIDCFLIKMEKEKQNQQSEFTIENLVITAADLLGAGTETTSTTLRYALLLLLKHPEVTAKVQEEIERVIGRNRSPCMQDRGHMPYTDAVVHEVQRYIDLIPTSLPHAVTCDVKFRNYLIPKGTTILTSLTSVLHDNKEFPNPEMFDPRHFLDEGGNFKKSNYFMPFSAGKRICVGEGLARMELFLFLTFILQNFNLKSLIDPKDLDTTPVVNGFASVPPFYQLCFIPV
T1 sequence (P10635 whole entry): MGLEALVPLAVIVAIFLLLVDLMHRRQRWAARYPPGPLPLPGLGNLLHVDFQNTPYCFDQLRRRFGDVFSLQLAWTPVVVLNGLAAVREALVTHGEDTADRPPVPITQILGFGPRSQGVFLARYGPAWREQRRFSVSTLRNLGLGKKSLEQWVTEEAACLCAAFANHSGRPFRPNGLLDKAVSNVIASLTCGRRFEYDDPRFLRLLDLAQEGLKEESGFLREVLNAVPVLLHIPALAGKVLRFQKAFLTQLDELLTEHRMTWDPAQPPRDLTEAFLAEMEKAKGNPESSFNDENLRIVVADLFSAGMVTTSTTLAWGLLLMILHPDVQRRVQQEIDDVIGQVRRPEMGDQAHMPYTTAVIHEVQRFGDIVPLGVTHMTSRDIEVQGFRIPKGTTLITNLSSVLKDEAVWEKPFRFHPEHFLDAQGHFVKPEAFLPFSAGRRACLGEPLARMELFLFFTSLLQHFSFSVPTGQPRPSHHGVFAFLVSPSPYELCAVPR

IC50 at 10 min [1]: 40.6 µM
AUC(0-inf) [2, 7]: 1.44 µM·h
C0 [2, 7]: 2.72 µM
clearance [2, 7]: 2.5 L/h/kg
half-life [2, 7]: 34.2 min
Vd ([2]; 2 mg/kg, 2 mpk intravenous injection, read-out: Vdss): 1.54 L/kg
AUC(0-inf) [2, 8]: 37.6 µM·h
Cmax [2, 8]: 25.6 µM
Tmax [2, 8]: 22.8 min
bioavailability [2, 8]: 52.2%
half-life [2, 8]: 55.2 min
Plasma protein unbound rate, SD rat plasma [3]: 7.1%
IC50 at 10 min [4]: 39.1 µM
IC50 at 10 min [5]: > 50 µM
IC50 at 10 min [6]: > 50 µM
Structure (SMILES): COCCN1C[C@@H](n2ccc(F)c2)[C@H](NC(=O)Nc2c(C)c(-c3cnc(C4(F)COC4)nc3)nn2-c2ccccc2)C1 [Compound of formula (I)]
